Structures are written as SMILES.

By melting point is commonly meant the temperature, or range, at which the solid turns liquid.

The compound `O=C(O)c1cc2c(-c3ccccc3)n[nH]c2s1` [Example 1, 3-phenyl-1H-thieno[2,3-c]pyrazole-5-carboxylic acid] gave a melting point of 142 °C.

These data come from patent publication US20050026984A1, “Substituted thieno [2,3-c] pyrazoles and their use as medicinal products” (Aventis Pharma S.A., priority 2003, published 2005).
